Reference: patent US20240197725A1, “METHOD AND COMPOSITION FOR THE PREVENTION OR TREATMENT OF OSTEOARTHRITIS” (Rhode Island Hospital, priority 2021, published 2024)
pIC50: −log10 of the molar value. Like-named read-outs stand apart in the source and are kept apart here.

Tests used:
SHP2 [1] = target: T1, SHP2 (Homo sapiens, UniProt Q06124); conditions: read-out: SHP2 IC50; cited from earlier work
SHP2 [2] = target: T2, SHP2 (Mus musculus, UniProt P35235); assay: SHP2 degradation in Prg4+ articular cartilage cells (Western blot); assay type: cell-based, murine; conditions: chondrocytes, a week after withdrawal
T2 construct: endogenous in cells; host or cells: Prg4+ murine articular cartilage (AC) cells

[3] = test system: murine articular cartilage cells; assay: Cell viability (WST1) of articular cartilage cells; assay type: cell-based; conditions: concentrations as high as 1 μM, 48 hrs, WST1, n=3
Method: With respect to toxicity, murine articular cartilage cells were treated with indicated concentration of SHP2D26 for 48 hrs. Cell viabilities were measured using WST1 (n=3).

SHP2 [4] = target: T1, SHP2; design: host or cells: esophageal cancer cells (endogenous SHP2); conditions: cited from earlier work

T1 sequence (Q06124 whole entry): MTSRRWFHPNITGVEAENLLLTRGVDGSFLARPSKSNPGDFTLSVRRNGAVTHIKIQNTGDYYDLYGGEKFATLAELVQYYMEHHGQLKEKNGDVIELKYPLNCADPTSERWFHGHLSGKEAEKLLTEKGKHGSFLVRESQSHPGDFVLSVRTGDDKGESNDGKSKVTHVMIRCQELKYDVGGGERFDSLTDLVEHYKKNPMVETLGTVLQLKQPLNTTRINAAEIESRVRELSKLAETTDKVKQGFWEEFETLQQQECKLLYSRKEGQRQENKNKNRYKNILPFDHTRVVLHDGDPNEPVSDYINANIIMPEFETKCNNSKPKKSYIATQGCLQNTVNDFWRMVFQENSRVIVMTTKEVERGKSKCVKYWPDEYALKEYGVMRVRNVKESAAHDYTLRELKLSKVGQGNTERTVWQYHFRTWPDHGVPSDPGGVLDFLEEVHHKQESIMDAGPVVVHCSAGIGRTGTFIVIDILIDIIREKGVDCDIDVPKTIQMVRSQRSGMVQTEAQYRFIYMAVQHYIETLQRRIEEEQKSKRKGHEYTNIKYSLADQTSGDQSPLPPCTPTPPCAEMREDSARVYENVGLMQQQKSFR
T2 sequence (P35235 whole entry): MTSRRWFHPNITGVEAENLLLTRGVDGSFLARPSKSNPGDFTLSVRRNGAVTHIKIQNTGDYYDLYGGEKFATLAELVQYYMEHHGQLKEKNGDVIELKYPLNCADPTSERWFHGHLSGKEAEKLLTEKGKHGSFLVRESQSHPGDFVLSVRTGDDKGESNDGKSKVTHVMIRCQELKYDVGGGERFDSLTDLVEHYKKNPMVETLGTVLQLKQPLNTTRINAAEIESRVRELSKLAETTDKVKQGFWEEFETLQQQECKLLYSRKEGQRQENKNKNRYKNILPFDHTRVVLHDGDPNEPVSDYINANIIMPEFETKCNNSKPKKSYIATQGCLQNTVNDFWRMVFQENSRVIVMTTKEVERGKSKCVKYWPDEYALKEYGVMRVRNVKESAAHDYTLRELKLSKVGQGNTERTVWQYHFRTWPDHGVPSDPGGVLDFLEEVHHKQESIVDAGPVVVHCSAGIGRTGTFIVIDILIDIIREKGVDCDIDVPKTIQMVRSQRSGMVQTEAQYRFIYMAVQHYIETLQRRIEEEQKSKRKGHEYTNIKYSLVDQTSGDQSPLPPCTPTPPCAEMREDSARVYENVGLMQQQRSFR

For `O=C1/C(=N\Nc2ccc(S(=O)(=O)O)cc2)C(c2ccc([N+](=O)[O-])cc2)=NN1c1ccc([N+](=O)[O-])cc1` [GS-493, 4-((2 Z)-2-(1,3-bis (4-Nitrophenyl)-5-oxo-1,5-dihydro-4H-pyrazol-4-yliden)hydrazino) benzenesulfonic acid, (Z)-4-(2-(1,3-bis(4-Nitrophenyl)-5-oxo-1H-pyrazol-4(5H)-ylidene)hydrazinyl)benzenesulfonic acid], the pIC50 (SHP2 [1]) is given as 4.15.
For `O=c1c2ccccc2n2c(-c3ccccc3O)nnc2n1Cc1ccccc1Cl` [SHP357], the pIC50 (SHP2 [1]) is given as < 4.00.
For `C[C@@H]1OCC2(CCN(c3nc4[nH]nc(-c5ccnc(NC6CC6)c5Cl)c4c(=O)n3C)CC2)[C@@H]1N` [SHP389, 6-((3S,4S)-4-Amino-3-methyl-2-oxa-8-azaspiro[4.5]decan-8-yl)-3-(3-chloro-2-(cyclopropylamino)pyridin-4-yl)-5-methyl-2,5-dihydro-4H-pyrazolo[3,4-d]pyrimidin-4-one], the pIC50 (SHP2 [1]) is listed as 4.44.
In the case of `Cc1ncsc1-c1ccc([C@H](C)NC(=O)[C@@H]2C[C@@H](O)CN2C(=O)[C@@H](NC(=O)CCCCCCCCN2CCN(C(=O)CCC(=O)Nc3cccc(Sc4ncc(N5CCC(C)(N)CC5)nc4N)c3Cl)CC2)C(C)(C)C)cc1` [SHP-D26, (2S,4R)-1-((S)-2-(9-(4-(4-((3-((3-amino-5-(4-amino-4-methylpiperidin-1-yl)pyrazin-2-yl)thio)-2-chlorophenyl)amino)-4-oxobutanoyl)piperazin-1-yl)nonanamido)-3,3-dimethylbutanoyl)-4-hydroxy-N-((S)-1-(4-(4-methylthiazol-5-yl)phenyl)ethyl)pyrrolidine-2-carboxamide], the “SHP2 recovered after complete withdrawal of compound from culture medium” value (SHP2 [2]) is given as “about 50%”, the cell viability [3] is given as “did not compromise cell viability” and the DC50 (SHP2 [4]; acute myeloid leukemia MV4, 11 cells, read-out: DC50) is given as 2.6 nM. For the same compound, the DC50 (SHP2 [4]; esophageal cancer KYSE520 cells, read-out: DC50) was 6 nM and the DC50 (SHP2 [4]; range over the cancer cell lines, read-out: SHP2 DC50) was 2.6 to 6 nM.
